Results taken from the OPERA property sets (Mansouri et al. 2018).
In brackets after ≈: the same amount, converted by molar mass.

Conditions: for solubility: 20 °C

Structure (SMILES) | logP | solubility
Cc1cccc(O)c1[N+](=O)[O-] | 2.29 | –
O=[N+]([O-])c1ccc(F)cc1O | 1.91 | –
O=Cc1ccc(O)c([N+](=O)[O-])c1 | 1.48 | 1120 µM (≈ 187 µg/mL)
O=[N+]([O-])c1ccc(O)cc1 | – | 83400 µM (≈ 11600 µg/mL)
Cc1ccc([N+](=O)[O-])c(O)c1 | 2.31 | 1780 µM (≈ 272 µg/mL)
O=[N+]([O-])c1cc(-c2ccccc2)ccc1O | 3.71 | 38.9 µM (≈ 8.37 µg/mL)
COc1ccc(O)c([N+](=O)[O-])c1 | 2.02 | 1450 µM (≈ 245 µg/mL)
Cc1cc(O)c([N+](=O)[O-])cc1Cl | 2.93 | 40.7 µM (≈ 7.64 µg/mL)
O=[N+]([O-])c1cc(Cl)ccc1O | 2.46 | 812 µM (≈ 141 µg/mL)
Cc1cc(O)ccc1[N+](=O)[O-] | 2.48 | 7760 µM (≈ 1190 µg/mL)
CCC(C)c1ccc(O)c([N+](=O)[O-])c1 (stereo not given) | 3.84 | 144 µM (≈ 28.2 µg/mL)
O=[N+]([O-])c1cc(C(F)(F)F)ccc1O | 2.34 | –
